Key:
[1] = tested on: organophosphorous agent resistant two-spotted spider mites; test: Effect on Two-spotted Spider Mite (spray on kidney bean leaves); assay type: in vivo; settings: 125 ppm, water dispersible powder of Formulation Example 1 sprayed, 17 female adults, 25° C., 65% humidity, 3 days
In short: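 Mortality of adult females counted after 3 days at 25 °C and 65% humidity, following a 125 ppm spray of wettable-powder dilution onto infested 7–10-day-old bean seedlings (17 mites per leaf). Two replicates.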

[2] = tested on: acaricide resistant citrus red mites; test: Effect on Citrus Red Mite (spray on mandarin orange leaves); assay type: in vivo; settings: 31 ppm, emulsifiable concentrate of Formulation Example 2 sprayed, 10 female adults, 25° C., 65% humidity
In short: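 Acaricide-resistant female adult citrus red mites (10 per leaf) on mandarin orange leaves were sprayed with emulsifiable concentrate diluted to 31 ppm compound. Leaves were held 3 days at 25° C, 65% humidity, then adults were removed. Eggs laid during those 3 days were checked on day 11 for development to adults.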

army worms = test: Effect on Army Worm (artificial feed test); assay type: in vivo; settings: 10 μg of compound on 0.2 ml artificial feed, second instar, 25° C., 5 days
Protocol: Test feeds were prepared by filling plastic test tubes (capacity of 1.4 ml) with 0.2 ml of a commercial artificial feed (Insecta LFS, manufactured by Nosan Corporation). Each of 1% chemical compound solutions was prepared by using DMSO (containing 0.5% tween 20), which was then dropped into the surface of the feed in amount of 10 μg of the respective chemical compounds. 2 army worms, each of which was in the second instar, were inoculated into each of the test tubes, which were then sealed by their plastic caps. After they were left at 25° C. for 5 days, the rate of killed army worms and their feed consumptions were investigated. The test was repeated twice. […] 1-8, 1-9, 1-13, 1-15, 1-17, 1-22, 1-23, 1-27, 1-39, 1-45, 1-46, 1-59, 1-69, 1-72, 1-74, 1-75, 1-79, 1-80, 1-83, 1-95, 1-97, 1-981-100, 1-105, 1-108, 1-114, 1-133, 1-140, 1-147, 1-153, 1-165, 1-166, 1-181, 1-182, 1-183, 1-184, 1-187, 1-189, 1-190,

| Structure (SMILES) | rate of killed adults [1] | killed ... of the adults (eggs laid for 3 days investigated whether they could grow to adults on the eleventh day) [2] | killed 100% of the army worms, or inhibited their feed consumptions, in comparison with a solvent control area, to 10% or less (effective) (army worms) | melting point |
| --- | --- | --- | --- | --- |
| COCOCc1cc(C(F)(F)F)ccc1OC1CCN(c2ccc(C(F)(F)F)cn2)CC1C (mixture of isomers) [1-183] | 100% | 100% | effective |  |
| CCCc1cc(C(F)(F)F)ccc1OC1CCN(c2ccc(C(F)(F)F)cn2)CC1 [1-59] | 100% | 100% | effective |  |
| FC(F)(F)c1ccc(N2CCC(Oc3ccc(C(F)(F)F)cc3C(F)(F)F)CC2)nc1 [1-80] | 100% | 100% | effective |  |
| COCOc1cc(C(F)(F)F)ccc1OC1CCN(c2ccc(C(F)(F)F)cn2)CC1 [1-105, 4-[2-methoxymethoxy-4-(trifluoromethyl)-phenoxy]-1-[5-(trifluoromethyl)-2-pyridyl]piperidine] | 100% | 100% | effective |  |
| CCCOc1cc(C(F)(F)F)ccc1O[C@H]1CCN(c2ccc(C(F)(F)F)cn2)C[C@H]1C (relative stereo) [1-97, cis-3-methyl-4-[2-propoxy-4-(triphloromethyl)phenoxy]-1-[5-(trifluoromethyl)-2-pyridyl]piperidine] | 100% | 100% | effective |  |
| Cc1noc(-c2cc(C(F)(F)F)ccc2OC2CCN(c3ccc(C(F)(F)F)cn3)CC2)n1 [1-190] | 100% | 100% | effective |  |
| FC(F)(F)c1ccc(OC2CCN(c3ccc(C(F)(F)F)cn3)CC2)cc1 [1-75] | 100% | 100% | effective |  |
| COCOCc1cc(C(F)(F)F)ccc1OC1CCN(c2ccc(C(F)(F)F)cn2)CC1 [1-69] | 100% | 100% | effective |  |
| FC(F)(F)c1ccc(N2CCC(Oc3ccc(C(F)(F)F)cc3Br)CC2)nc1 [1-22] | 100% | 100% | effective |  |
| COC(C)OCc1cc(C(F)(F)F)ccc1OC1CCN(c2ccc(C(F)(F)F)cn2)CC1C (stereo not shown) [1-189] | 100% | 100% | effective |  |
| FC(F)(F)c1ccc(N2CCC(Oc3ccc(C(F)(F)F)cc3C3OCCO3)CC2)nc1 [1-181] | 100% | 100% | effective |  |
| CC(=O)Oc1cc(C(F)(F)F)ccc1OC1CCN(c2ccc(C(F)(F)F)cn2)CC1 [1-167, 4-[2-acetoxy-4-(trifluoromethyl)phenoxy]-1-[5-(trifluoromethyl)-2-pyridyl]piperidine] |  |  |  | 85 to 95 °C |
| FC(F)(F)Oc1ccc(OC2CCN(c3ccc(C(F)(F)F)cn3)CC2)cc1 [1-133] | 100% | 100% | effective |  |
| FC(F)(F)c1ccc(N2CCC(Oc3ccc(C(F)(F)F)cc3Cl)CC2)nc1 [1-13] | 100% | 100% | effective |  |
| COC(C)OCc1cc(C(F)(F)F)ccc1OC1CCN(c2ccc(C(F)(F)F)cn2)CC1 (stereo not shown) [1-72] | 100% | 100% | effective |  |
| FC(F)(F)c1ccc(N2CCC(Oc3ccc(C(F)(F)F)cc3OCC3CC3)CC2)nc1 [1-108] | 100% | 100% | effective |  |
| FC(F)(F)c1ccc(N2CCC(Oc3ccc(Cl)c(C(F)(F)F)c3)CC2)nc1 [1-15, 4-[4-chloro-3-(trifluoromethyl)phenoxy]-1-[5-(trifluoromethyl)-2-pyridyl]-piperidine] | 100% | 100% | effective |  |
| CCCOc1cc(C(F)(F)F)ccc1OC1CCN(c2ccc(C(F)(F)F)cn2)CC1CC (stereo not shown) [1-187] | 100% | 100% | effective |  |
| Cc1cc(C(F)(F)F)ccc1OC1CCN(c2ccc(C(F)(F)F)cn2)CC1 [1-45] | 100% | 100% | effective |  |
| FC(F)(F)c1ccc(N2CCC(Oc3ccc(C(F)(F)F)cc3I)CC2)nc1 [1-27] | 100% | 100% | effective |  |
